From PubChem BioAssay AID850 (SRMLSC, 2007)
The source made the active and inactive calls. How the calls were made is not given here.

Columns and labels:
[1] = concentration-response yeast growth inhibition under permissive conditions, counter-assay for yeast lifespan-shortening chemical project (AID 850); conditions: Saccharomyces cerevisiae growth inhibition, permissive control, measured here: maximum growth inhibition, stronger effect = higher value;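 further: growth read as optical density after one day of incubation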
[2] = system: Saccharomyces cerevisiae growth inhibition, permissive control; assay: as above

Row | SMILES | IC50 [2] | inhibition ([1]; at 50 µM) [%] | further results
1 | O=C(O)CCSc1nnc(-c2ccccc2)n1-c1ccccc1 | > 100 µM (inactive) | – | inhibition ([1]; at 1.563 µM): 15.8%
2 | O=C(/C=C/c1ccccc1Cl)c1ccccc(=O)c1O | 11.5 µM | 101 | –
3 | COc1ccc(-c2cc(-c3ccccc3O)[nH]n2)cc1 | > 100 µM (inactive) | – | inhibition ([1]; at 1.563 µM): 3.65%
4 | CCOC(=O)CNC(=O)CSc1nnc(-c2ccco2)n1Cc1ccco1 | > 100 µM (inactive) | – | inhibition ([1]; at 0.781 µM): 14.2%
5 | COc1ccc(C(=O)N/N=C/c2sc3ccccc3c2O)cc1 | > 100 µM (inactive) | – | inhibition ([1]; at 0.781 µM): 17%
6 | Cc1ccc(Nc2cc(C)nn2-c2nc(C)cc(=O)[nH]2)cc1 | 0.708 µM | – | inhibition ([1]; at 6.25 µM): 96.6%
7 | CC1CCCC2(C1)NC(=S)c1c(sc3c1CCCC3)N2 (stereo not drawn) | > 100 µM (inactive) | – | inhibition ([1]; at 0.781 µM): 10.2%
8 | C/C(=N\NC(=O)c1ccc(CSc2cccc3cccnc23)cc1)C1CCCCC1 | 29.7 µM | 93.4 | –
9 | Cc1cccc(C(=O)CC(=O)c2cc(Cl)ccc2O)c1 | 35.8 µM | 52.9 | –
10 | Oc1ccc(COCc2ccccc2)c2cccnc12 | 6.07 µM | 99.4 | –
11 | S=C(NCc1ccc(Cl)cc1)NC12CC3CC(CC(C3)C1)C2 | > 100 µM (inactive) | – | inhibition ([1]; at 0.195 µM): 14.1%
12 | CCN1CCN(c2ncnc3c2sc(=S)n3-c2ccccc2)CC1 | > 100 µM (inactive) | – | inhibition ([1]; at 0.195 µM): 15.6%
13 | CCN(CC)c1ccc(S(=O)(=O)N2CCOCC2)cc1NC(=O)CSc1cccc[n+]1[O-] | 25.3 µM | 96.5 | –
14 | CCn1c(Sc2nc(C)nc3scc(-c4cccs4)c23)n[nH]c1=O | 22.9 µM | – | inhibition ([1]; at 25 µM): 55.1%
15 | Cc1[nH]n(-c2ccccc2)c(=O)c1/C=N/Nc1nncc(-c2ccccc2)n1 | 20.7 µM | 98.7 | –
16 | COc1ccc2c(c1)[nH]c1c(Cl)ncnc12 | > 100 µM (inactive) | – | inhibition ([1]; at 0.195 µM): 21.3%
17 | CCCCn1c(/N=C/c2c[nH]c3ccccc23)nc2ccccc21 | > 100 µM (inactive) | – | inhibition ([1]; at 0.781 µM): 7.75%

Row | SMILES | IC50 [2] | inhibition ([1]; at 50 µM) [%] | further results
18 | CCCCCCCOC(=O)C[N+](C)(C)CCOC1CC2CCC1(C)C2(C)C (stereo not drawn) | 29.2 µM | 99.4 | –
19 | CCOC(=O)c1c(-c2ccc(-c3ccccc3)cc2)csc1NC(=O)CCN1CCOCC1 | 15.5 µM | 94.6 | –
20 | Nc1c(C(=O)NCCc2ccccc2)c2nc3ccccc3nc2n1CCN1CCOCC1 | 42.4 µM | 99.8 | –
21 | O=C(Oc1c(Cl)cc(Cl)c2cccnc12)c1cccs1 | 12.7 µM | – | inhibition [1]: 100%
22 | COc1cccc2sc(Nc3nc(-c4ccccn4)cs3)nc12 | 20 µM | 77.8 | –
23 | O=[N+]([O-])c1ccc(N/N=C/c2ccc[nH]2)cc1 | > 100 µM (inactive) | 5.41 | –
24 | O=C(OCn1ncc(Cl)c(Cl)c1=O)c1ccc(F)cc1 | > 100 µM (inactive) | 23 | –
25 | CCN1/C(=C/C=C/C=C/c2sc3ccccc3[n+]2CC)Sc2ccccc21 | 11.3 µM | – | inhibition ([1]; at 25 µM): 87.5%
26 | c1cn2cc(-c3ccc4c(c3)OCO4)nc2s1 | > 100 µM (inactive) | 27.3 | –
27 | O=c1cnn([C@@H]2O[C@H](CO)[C@@H](O)[C@H]2O)c(=O)[nH]1 | 16.6 µM | 68.7 | –
28 | CN1C(=O)C(O)(CC(=O)c2ccccc2O)c2cc(Br)ccc21 (stereo not drawn) | > 100 µM (inactive) | – | inhibition ([1]; at 0.195 µM): 17.2%
29 | O=C(CSCc1ccco1)Nc1cc(C(F)(F)F)ccc1N1CCOCC1 | > 100 µM (inactive) | – | inhibition ([1]; at 0.781 µM): 16.7%
30 | CCC(=C(c1ccc(OC)cc1)c1ccc(OC)cc1)c1cn(CC(O)CN2CCN(C)CC2)c2ccccc12 (stereo not drawn) | 33.9 µM | 93.2 | –
31 | CN(c1ccccc1)c1ccc(/C=C/[N+](=O)[O-])cc1 | 16.8 µM | 98.4 | –
32 | Cn1c(N2CCOCC2)c(/C=N/OC(=O)c2ccc(F)cc2)c2ccccc21 | > 100 µM (inactive) | 19.1 | –
33 | CC1/C(=N/O)CC(c2ccccc2)N(C)C1c1ccccc1 (stereo not drawn) | < 0.098 µM | – | inhibition ([1]; at 25 µM): 94.8%
34 | CCCc1ccc(OCC(=O)NNC(=S)NC(=O)c2ccco2)cc1 | 10.6 µM | 98.8 | –
